Experimental data as given in patent US5795891A, “Acylphenylglycine derivative and preventive and remedy for diseases caused by increased collagenase activity containing said compound as active ingredient” (Kanebo Ltd., priority 1993, dated 1998).
Structures can show the parent of a compound that is named as a salt.

Experiments:
collagenase [1] = test: Collagenase activity inhibition rate in blood after oral administration (in mice); type: in vivo; conditions: 30 mg/kg p.o.; for Collagenase Inhibition rates in blood after oral administration, After 2 hours: after 2 hours (as printed in head; text says 3 hours)
Method: (§1) Test compounds were suspended in 0.5% CMC and orally administered to three mice per group (the dose of the test compound, 30 mg/kg), and after a certain period of time, the blood was collected in the presence of heparin and ice-cooled. Plasma was obtained by centrifugation of this blood at 10,000 rpm for 5 minutes at 4° C. To 400 μl of this plasma was added to 600 μl of distilled water, and heated at 100° C. for 10 minutes. After cooling, the mixture was centrifuged at 10,000 rpm for 5 minutes and filtered using a micro-volume ultrafiltration unit (Molcut II, Millipore) to provide a sample (A) for use in collagenase activity measurement. Using this sample, collagenase activity inhibition rate in blood was determined by the following method.
(§2) The sample (A) above was mixed with a known amount of collagenase (the collagenase used was prepared by the method described in JP-A-3-103178) dissolved in a buffer for measurement (50 mM Tris-HCl buffer, pH 7.5, containing 0.2M sodium chloride, 5 mM calcium chloride, 0.05% Brij-35 and 0.02% sodium azide,), and collagenase activity A was measured according to the method of Nagai et al. (Japanese Journal of Inflammation, 4, 123 (1984)) using a fluorescein isothiocyanate-labeled type-I collagen as a substrate. […] Inhibition rate was determined from the following equation:
(§3) Inhibition rate (%)=(1-A/B)×100

collagenase [2] = test: Collagenase activity inhibition rate in blood after oral administration (in rats); type: in vivo; conditions: 100 mg/kg p.o.
Method: as §1, §2, §3
The same procedure as Test Example 1 was followed except that mice were replaced with rats (3 rats/group) and the dose of the tested compounds selected to be 100 mg/kg.

adjuvant arthritis [3] = test: Adjuvant arthritis model: serum calcium concentration; type: in vivo, male Lewis rats; conditions: 100 mg/kg at 12-hour intervals for 20 days
Method: (§4) 8-week old male Lewis rats (Charles River Japan, K.K.) were divided into 4 groups (normal control group, control group, and two test compound groups) of 7 animals each. Each of the rats of the control group and the test compound groups were intra-dermally injected with 0.6 mg of heat-killed M. butyricum in 0.1 ml of liquid paraffin suspension in their right hind paw to induce adjuvant arthritis. The test compounds were suspended in 0.5% CMC, and administered to the rats of the test compound group at a dose of 100 mg/kg per administration immediately after the injection of adjuvant and at 12-hour intervals thereafter over a period of 20 days. The rats of the control group received 0.5% CMC immediately after the injection of adjuvant and at 12-hour intervals thereafter over a period of 20 days. The rats of the normal control group were not injected with adjuvant but only administered 0.5% CMC analogously to the administration of the test compounds.
Measurement was carried out on the same sample as above 2) using Calcium TestWAKO (Wako Junyaku), and statistical analysis was made according to the Dunnett's method for the superiority of the test compound group over the control group.

bone resorption = test: Test for inhibition of bone resorption: urine hydroxyproline/creatinine ratio in rats on calcium-deficient food; type: in vivo, male Wister rats
Method: Furthermore, an investigation of its suppressive effect was carried out on bone resorption by administering the compound of the present invention to rats kept on a calcium-deficient food and using the urinary hydroxyproline excretion (ratio to creatinine) as an index.
(§5) After the last administration of the test compounds on day 20, the rats were transferred into metabolic cages, and urine samples were collected overnight without supply of food or water. Urine volume and the amounts of creatinine and hydroxyproline were determined by the following method, and urinary hydroxyproline excretion expressed in the ratio to creatinine. Statistical analysis was made according to the Tukey's method for the superiority of test compound group over the control group. Determination of creatinine was carried out using Creatinine TestWAKO (Wako Junyaku). Hydroxyproline was determined by first hydrolyzing the urine with 6N hydrochloric acid, then isolation on high performance liquid chromatograph equipped with ion-exchange column (Hitachi Gel #2619), reaction with O-phthalaldehyde to form a hydroxyproline derivative, and measurement on a fluorophotometer.
6-week old male Wister rats (SLC Japan) were kept on a calcium-deficient food (Oriental Yeast, 0.0105-0.012% calcium, 0.62% phosphorus), orally administered 100 mg/kg of compound D or Y in a 0.5% CMC suspension on day 6 and, immediately thereafter, urine was collected for 16 hours under the condition of fasting with free access to water. The urine volume and urinary hydroxyproline and creatinirie content were measured by the method described in Example 3, and the urine hydroxyproline/creatinie ratio was calculated. Statistical analysis was made using the Tukey's method for the superiority of the test compound group over the control group.

adjuvant arthritis [4] = test: Adjuvant arthritis model: urinary hydroxyproline excretion; type: in vivo, male Lewis rats; conditions: after day 20, 100 mg/kg at 12-hour intervals, control 94.3 ± 1.8, normal 71.8 ± 2.6
Method: as §4, §5

adjuvant arthritis [5] = test: Adjuvant arthritis model: erythrocyte sedimentation rates; type: in vivo, male Lewis rats; conditions: 100 mg/kg at 12-hour intervals for 20 days
Method: as §4
The blood was fully removed on day 21 and used as a sample. Erythrocyte sedimentation measuring apparatus (Matsuyoshi's Erythrocyte Sedimentation rack) was used for the measurement, and statistical analysis was made according to the Dunnett's method for the superiority of the test compound group over the control group.

Row | SMILES | Collagenase Inhibition rates in blood after oral administration, After 1 hour (collagenase [1]) | Collagenase Inhibition rates in blood after oral administration, After 2 hours (collagenase [1]) | also measured
1 | CNC(=O)C(NC(=O)C(CC(=O)NO)CC(C)C)c1ccccc1 [Compound A, [4-(N-hydroxyamino)-2(R)-isobutylsuccinyl]-L-phenylglycine-N-methylamide] | 88% | 83% | Collagenase Inhibition rates in blood after oral administration, After 1 hr. (collagenase [2]): 100%; Collagenase Inhibition rates in blood after oral administration, After 3 hrs. (collagenase [2]): 91%; Collagenase Inhibition rates in blood after oral administration, After 6 hrs. (collagenase [2]): 64%
2 | CNC(=O)C(NC(=O)C(CC(=O)NO)CC(C)C)c1ccc(O)cc1 [Compound B, [4-(N-hydroxyamino)-2(R)-isobutylsuccinyl]-L-(p-hydroxyphenyl)glycine-N-methylamide] | 84% | 62% | 
3 | CNC(=O)C(NC(=O)C(CC(C)C)C(CN1CCOCC1)C(=O)NO)c1ccccc1 [Compound C, [4-(N-hydroxyamino)-2(R)-isobutyl-3-(morpholinomethyl)succinyl]-L-phenylglycine-N-methylamide hydrochloride] | 75% | 64% | 
4 | CNCC(C(=O)NO)C(CC(C)C)C(=O)NC(C(=O)NC)c1ccccc1 [Compound E, [4-(N-hydroxyamino)-2(R)-isobutyl-3-(methylaminomethyl)succinyl]-L-phenylglycine-N-methylamide] | 82% | 61% | 
5 | CCNC(=O)C(NC(=O)C(CC(=O)NO)CC(C)C)c1ccccc1 [Compound F, [4-(N-hydroxyamino)-2(R)-isobutylsuccinyl]-L-phenylglycine-N-ethylamide] | 89% | 53% | 
6 | CNC(=O)C(NC(=O)C(CC(=O)NO)CC(C)C)c1ccc(F)cc1 [Compound G, [4-(N-hydroxyamino)-2(R)-isobutylsuccinyl]-L-(p-fluorophenyl)glycine-N-methylamide] | 83% | 64% | 
7 | CNC(=O)C(NC(=O)C(CC(=O)NO)CC(C)C)c1ccc(C(C)C)cc1 [Compound H, [4-(N-hydroxyamino)-2(R)-isobutylsuccinyl]-L-(p-isopropylphenyl)glycine-N-methylamide] | 74% | 63% | 
8 | CNC(=O)[C@H](Cc1ccc(OC)cc1)NC(=O)[C@@H](CC(=O)NO)CC(C)C [Known compound X, [4-(N-hydroxyamino)-2(R)-isobutylsuccinyl]-L-O-methyltyrosine-N-methylamide, reference compound] | 60% | 43% | Collagenase Inhibition rates in blood after oral administration, After 1 hr. (collagenase [2]): 45%; Collagenase Inhibition rates in blood after oral administration, After 3 hrs. (collagenase [2]): 44%; Collagenase Inhibition rates in blood after oral administration, After 6 hrs. (collagenase [2]): 33%
9 | CNC(=O)[C@H](Cc1ccccc1)NC(=O)[C@H](CC(C)C)[C@H](CSc1cccs1)C(=O)NO [Known compound Y, [4-(N-hydroxyamino)-2(R)-isobutyl-3(S)-(2-thienyl)thiomethylsuccinyl]-L-phenylalanine-N-methylamide, reference compound] | 14% | 21% | effect on increase in serum calcium concentration (in words) (adjuvant arthritis [3]; vs control): no such effect was noted; Serum calcium conc. (adjuvant arthritis [3]; day 21, control 9.5 ± 0.1, normal 8.6 ± 0.1, ** P < 0.01 vs control (Compound D)): 9.6 ± 0.1 mg/dL; effect on increase in urine hydroxyproline/creatinine ratio (in words) (bone resorption; 100 mg/kg p.o., vs control): hardly suppressed this increase; Urinary hydroxyproline excretion (ratio to creatinine) (bone resorption; single 100 mg/kg p.o., urine 16 hours, control 174 ± 7, normal 134 ± 7, * P < 0.05 vs control (Compound D)): 161 ± 3 μg/mg creatinine; Urinary hydroxyproline excretion (ratio to creatinine) (adjuvant arthritis [4]): 107.1 ± 6.5 μg/mg creatinine; effect on increase in erythrocyte sedimentation rates (in words) (adjuvant arthritis [5]; vs control): no such effect was noted; Erythrocyte sedimentation rates (adjuvant arthritis [5]; day 21, control 33 ± 2, normal 1 ± 0.1, ** P < 0.01 vs control (Compound D)): 30 ± 3
10 | CNC(=O)[C@H](Cc1c[nH]c2ccccc12)NC(=O)[C@@H](CC(=O)NO)CC(C)C [Known compound Z, [4-(N-hydroxyamino)-2(R)-isobutylsuccinyl]-L-tryptophan-N-methylamide, reference compound] | 58% | 51% | 
